Data on 15 molecules can be found in patent US20240082406A1, “BENZOHETEROCYCLE SUBSTITUTED TETRAHYDROISOQUINOLINE COMPOUND” (SHANGHAI JEMINCARE PHARMACEUTICAL CO., LTD, priority 2020, published 2024).

Assay [1] addresses T1, NHE3 (UniProt P48764).
T1 sequence (P48764 1-834): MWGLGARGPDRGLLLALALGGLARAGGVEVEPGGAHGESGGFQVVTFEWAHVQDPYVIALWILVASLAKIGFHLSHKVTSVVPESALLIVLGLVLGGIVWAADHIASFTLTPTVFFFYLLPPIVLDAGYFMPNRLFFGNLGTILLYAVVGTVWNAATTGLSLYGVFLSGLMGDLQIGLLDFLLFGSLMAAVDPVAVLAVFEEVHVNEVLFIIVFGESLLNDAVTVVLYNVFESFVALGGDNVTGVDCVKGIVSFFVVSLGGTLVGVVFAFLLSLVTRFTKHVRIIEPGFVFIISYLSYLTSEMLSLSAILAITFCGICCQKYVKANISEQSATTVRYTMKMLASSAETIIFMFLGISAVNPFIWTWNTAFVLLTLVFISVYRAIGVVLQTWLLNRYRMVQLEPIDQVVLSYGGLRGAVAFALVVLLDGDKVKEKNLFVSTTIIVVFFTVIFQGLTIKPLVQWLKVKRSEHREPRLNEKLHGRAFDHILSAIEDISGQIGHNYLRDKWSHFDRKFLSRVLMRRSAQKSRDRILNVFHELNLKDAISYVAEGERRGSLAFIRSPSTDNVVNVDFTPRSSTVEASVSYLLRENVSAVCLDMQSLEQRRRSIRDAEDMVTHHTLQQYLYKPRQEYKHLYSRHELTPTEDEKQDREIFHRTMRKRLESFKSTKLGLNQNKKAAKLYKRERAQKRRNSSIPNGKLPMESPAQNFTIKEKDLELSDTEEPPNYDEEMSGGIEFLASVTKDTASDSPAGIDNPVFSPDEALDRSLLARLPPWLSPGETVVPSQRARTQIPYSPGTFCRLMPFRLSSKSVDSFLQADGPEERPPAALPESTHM
Kind of assay: Cell-based NHE3 activity under transient conditions (BCECF-AM intracellular pH, FLIPR). Also noted: species or system Rat or Human. The conditions noted are these: embodiment compounds, opossum kidney cells expressing NHE3, read-out: Cell-based NHE3 inhibition IC50 (uM) under transient conditions. The text has this:
(§1) Opossum kidney (OK) cells were obtained from ATCC and cultured and expanded according to its instructions. OK monoclonal stable cell lines expressing the Rat NHE3 (Gene Bank registration number: M85300) protein and OK monoclonal stable cell lines expressing the Human NHE3 (Gene Bank registration number: NM_004174.1) protein were constructed by lentivirus infection.
The general procedure of the cell-based NHE3 activity experiments under transient conditions (transient inhibition) was based on an adaptation method of the pH-sensitive dye method originally reported by Tisen (Proc. Natl. Acad. Sci. USA) (1984) 81(23):7436-7440) to measure rat NHE3-mediated Na+-dependent reverse H+ transport, and was optimized according to the instructions “Measuring Intracellular pH With the FLIPR and FLIPR 384 Fluorometric Imaging Plate Reader Systems” published by Molecular Devices. The specific method was: Rat NHE3 OK monoclonal cells or Human NHE3 OK monoclonal cells were inoculated into 384-well plates and grew overnight. The medium was aspirated from the wells and the cells were washed twice with FLIPR buffer (Hank's BSS 1×, 20 mM HEPES, 1% BSA) followed by incubation with FLIPR buffer (Hank's BSS 1×, 20 mM HEPES, 1% BSA) containing […] BCECF-AM (Invitrogen) for 45 min at room temperature. Subsequently, […] of 200 mM NH4Cl-HEPES buffer (Hank's BSS 1×, 20 mM HEPES, 200 mM NH4Cl) was added and the cells were incubated for 15-20 minutes at room temperature. Cells were washed twice with 20 mM NH4Cl-HEPES buffer (Hank's BSS 1×, 20 mM HEPES, 20 mM NH4Cl). NHE3-mediated pH sensitization in cells was normalized by addition of containing 0.4 mM amiloride (EIPA) and […] test compound or Na-HEPES buffer (100 mM NaCl, 50 mM HEPES, 10 mM glucose, 5 mM KCl, 2 mM CaCl2), 1 mM MgCl2, pH 7.4) and monitoring of BCECF-AM fluorescence at λem 535 nm excitated by λex 440 nm and λex 490 nm respectively. Ratio=fluorescence value (λex 490 nm)/fluorescence value (λex 440 nm) was set, the average value of the Ratio difference between the end time and the start time between the duplicate wells was calculated, the average value and the concentration value of the compound were drawn, and Graphpad Prism software was used to estimate IC50 value.

For assay [2], the target named is T1, NHE3. Nature of the assay: Cell-based NHE3 activity under persistent conditions (60 min pre-incubation, compound removed). Also on record: species or system Rat or Human. To be noted: opossum kidney cells expressing NHE3, read-out: Cell-based NHE3 inhibition IC50 (uM) under persistent conditions.
Excerpt: as §1
The general procedure of the cell-based NHE3 activity assay under persistent conditions (persistent inhibition) was: Rat NHE3 OK monoclonal cells or Human NHE3 OK monoclonal cells were inoculated into 384-well plates and grew overnight. The medium was aspirated from the wells and the cells were washed twice with FLIPR buffer (Hank's BSS 1×, 20 mM HEPES, 1% BSA) followed by the addition of Na-HEPES buffer containing […] test compound (100 mM NaCl, 50 mM HEPES, 10 mM glucose, 5 mM KCl, 2 mM CaCl2, 1 mM MgCl2, pH 7.4) and incubated for 60 minutes at room temperature. The compounds were aspirated from the wells and incubated with FLIPR buffer (Hank's BSS 1×, 20 mM HEPES, 1% BSA) containing […] BCECF-AM (Invitrogen) for 45 minutes at room temperature. Subsequently, […] of 200 mM NH4Cl-HEPES buffer (Hank's BSS 1×, 20 mM HEPES, 200 mM NH4Cl) was added and incubated for 15-20 minutes at room temperature. The cells were washed twice with 20 mM NH4Cl-HEPES buffer (Hank's BSS 1×, 20 mM HEPES, 20 mM […]). […] Ratio=fluorescence value (λex 490 nm)/fluorescence value (λex 440 nm) was set, the average value of the Ratio difference between the end time and the start time between the duplicate wells was calculated, the average value and the concentration value of the compound were drawn, and the dose-response-inhibition (four parameters) equation was used to estimate EC50 value by GraphpadPrism.

Broadly, the IC50 is the concentration that inhibits the measured activity by half. With `CN1Cc2c(Cl)cc(Cl)cc2C(c2ccc3c(c2)C(=O)N(CCOCCOCCNC(=O)Nc2ccc(NC(=O)NCCOCCOCCN4Cc5ccc(C6CN(C)Cc7c(Cl)cc(Cl)cc76)cc5C4=O)cc2)C3)C1` (stereo not drawn) [Embodiment H2], the 50% inhibitory concentration (IC50) worked out at 0.48 µM in assay [1] and 0.06 µM in assay [2].

Take `CN1Cc2c(Cl)cc(Cl)cc2C(c2ccc3ccn(CCOCCOCCNC(=O)NCCCCNC(=O)NCCOCCOCCn4ccc5ccc(C6CN(C)Cc7c(Cl)cc(Cl)cc76)cc5c4=O)c(=O)c3c2)C1` (stereo not drawn) [Embodiment B5]: the 50% inhibitory concentration (IC50) in assay [1] is 0.23 µM; in assay [2], 0.57 µM.

`CN1Cc2c(Cl)cc(Cl)cc2[C@H](c2cccc(S(=O)(=O)NCCOCCOCCNC(=O)NCCCCNC(=O)NCCOCCOCCNS(=O)(=O)c3cccc([C@@H]4CN(C)Cc5c(Cl)cc(Cl)cc54)c3)c2)C1` [Tenapanor, reference compound]: the IC50 in assay [1] stood at 0.74 µM; in assay [2], 0.56 µM.

Regarding `CN1Cc2c(Cl)cc(Cl)cc2C(c2ccc3c(c2)S(=O)(=O)N(CCOCCOCCNC(=O)NCCCCNC(=O)NCCOCCOCCN2Cc4ccc(C5CN(C)Cc6c(Cl)cc(Cl)cc65)cc4S2(=O)=O)C3)C1` (stereo not drawn) [Embodiment A1], the IC50 came to 0.43 µM in assay [1] and 0.5 µM in assay [2].

For the molecule `CN1Cc2c(Cl)cc(Cl)cc2C(c2ccc3c(c2)C(=O)N(CCOCCOCCOCCNC(=O)[C@@H](O)[C@@H](O)C(=O)NCCOCCOCCOCCN2Cc4ccc(C5CN(C)Cc6c(Cl)cc(Cl)cc65)cc4C2=O)C3)C1` (stereo partly drawn) [Embodiment J3], the IC50 in assay [1] stood at 0.26 µM; in assay [2] it was 0.08 µM.

As to `CN1Cc2c(Cl)cc(Cl)cc2C(c2ccc3c(c2)C(=O)N(CCOCCOCCOCCNC(=O)NCCCCNC(=O)NCCOCCOCCCN2Cc4ccc(C5CCCc6ccc(Cl)cc65)cc4C2=O)C3)C1` (stereo not drawn) [Embodiment B6], the IC50 in assay [1] was determined as 1.05 µM; in assay [2] it was 0.04 µM.

`CN1Cc2c(Cl)cc(Cl)cc2C(c2ccc3cn(CCOCCOCCNC(=O)NCCCCNC(=O)NCCOCCOCCn4cc5ccc(C6CN(C)Cc7c(Cl)cc(Cl)cc76)cc5n4)nc3c2)C1` (stereo not drawn) [Embodiment D1-P1]: the half-maximal inhibitory concentration (IC50) in assay [1] was 0.28 µM; in assay [2] it was 0.02 µM.

With `CN1Cc2c(Cl)cc(Cl)cc2C(c2ccc3cnn(CCOCCOCCNC(=O)NCCCCNC(=O)NCCOCCOCCn4ncc5ccc(C6CN(C)Cc7c(Cl)cc(Cl)cc76)cc54)c3c2)C1` (stereo not drawn) [Embodiment D1-P2], the half-inhibitory concentration (IC50) is 2.33 µM in assay [1] and 3.61 µM in assay [2].

For `CN1Cc2c(Cl)cc(Cl)cc2C(c2ccc3c(c2)C(=O)N(CCOCCOCCNC(=O)CN(CCN(CC(=O)O)CC(=O)NCCOCCOCCN2Cc4ccc(C5CN(C)Cc6c(Cl)cc(Cl)cc65)cc4C2=O)CC(=O)O)C3)C1` (stereo not drawn) [Embodiment F1], the concentration for half-maximal inhibition (IC50) worked out at 0.91 µM in assay [1] and 0.64 µM in assay [2].

As to `CN1Cc2c(Cl)cc(Cl)cc2C(c2ccc3c(c2)C(=O)N(CCOCCOCCOCCNC(=O)CCC(N)(CCC(=O)NCCOCCOCCOCCN2Cc4ccc(C5CN(C)Cc6c(Cl)cc(Cl)cc65)cc4C2=O)CCC(=O)NCCOCCOCCOCCN2Cc4ccc(C5CN(C)Cc6c(Cl)cc(Cl)cc65)cc4C2=O)C3)C1` (stereo not drawn) [Embodiment I3], the IC50 in assay [1] is 0.19 µM; in assay [2], 0.13 µM.

For `CN1Cc2c(Cl)cc(Cl)cc2C(c2ccc3c(c2)C(=O)N(CCOCCOCCOCCNC(=O)[C@H](O)[C@@H](O)C(=O)NCCOCCOCCOCCN2Cc4ccc(C5CN(C)Cc6c(Cl)cc(Cl)cc65)cc4C2=O)C3)C1` (stereo partly drawn) [Embodiment J2], the half-maximal inhibitory concentration (IC50) turned out to be 0.32 µM in assay [1] and 0.05 µM in assay [2].

Regarding `CN1Cc2c(Cl)cc(Cl)cc2C(c2ccc3c(c2)C(=O)N(CCOCCOCCNC(=O)NC2CCC(NC(=O)NCCOCCOCCN4Cc5ccc(C6CN(C)Cc7c(Cl)cc(Cl)cc76)cc5C4=O)CC2)C3)C1` (stereo not drawn) [Embodiment H1], the IC50 in assay [1] came to 0.91 µM; in assay [2], 0.04 µM.

On to `CN1Cc2c(Cl)cc(Cl)cc2C(c2ccc3c(c2)S(=O)(=O)N(CCOCCOCCNC(=O)NCCCCNC(=O)NCCOCCOCCN2CCc4ccc(C5CN(C)Cc6c(Cl)cc(Cl)cc65)cc4S2(=O)=O)CC3)C1` (stereo not drawn) [Embodiment C1], for which the concentration for half-maximal inhibition (IC50) was determined as 0.22 µM in assay [1] and 0.59 µM in assay [2].

Consider `CN1Cc2c(Cl)cc(Cl)cc2C(c2ccc3c(c2)CN(CCOCCOCCNC(=O)NCCCCNC(=O)NCCOCCOCCN2Cc4cc(C5CN(C)Cc6c(Cl)cc(Cl)cc65)ccc4C2=O)C3=O)C1` (stereo not drawn) [Embodiment B4], for which the 50% inhibitory concentration (IC50) in assay [1] is 0.93 µM; in assay [2], 0.45 µM.

Regarding `CN1Cc2c(Cl)cc(Cl)cc2C(c2ccc3c(c2)C(=O)N(CCOCCOCCNC(=O)NCCCCNC(=O)NCCOCCOCCN2CCc4ccc(C5CN(C)Cc6c(Cl)cc(Cl)cc65)cc4C2=O)CC3)C1` (stereo not drawn) [Embodiment B3], the IC50 is 0.77 µM in assay [1] and 0.41 µM in assay [2].
